Assay results from US20260234147A1 (priority 2023, published 2026).
Like-named read-outs stand apart in the source and are kept apart here.

Legend:
[1] = molecular target: T1, hMOR (Homo sapiens, UniProt P35372); experiment: Cyclic adenosine 3′,5′-monophosphate (cAMP) assay in hMOR-CHO cells; format: cell-based; conditions: N=1, control agonist DAMGO
[2] = molecular target: hDOR (Homo sapiens, UniProt P41143); experiment: Radioligand binding assay (Eurofins Cerep), [3H]DADLE displacement
[3] = Metabolic stability in rat liver microsomes; format: in vitro ADME; conditions: rat liver microsomes 1 mg/ml, substrate 1 μM, NADPH, 37° C.
Experimental: In vitro metabolic stability of each compound was determined using rat liver microsomes in triplicate. Verapamil was used as a positive control to check the activity of the microsomes. The incubation mixtures consisted of rat liver microsomes (1 mg microsomal protein/ml), substrate (1 μM), and reduced NADPH (1 mM) in a total volume of 0.4 ml potassium phosphate buffer (50 mM, pH 7.4). Reactions were initiated with the addition of NADPH and kept in an incubator shaker at 37° C. Aliquots of 25 μl were withdrawn at 0, 5, 10, 15, 30, and 60 min and mixed with 125 μl of acetonitrile with formic acid (0.1% v/v) containing phenacetin (50 ng/ml; internal standard) for the termination of the reaction. The samples were then vortex mixed and filtered through a […] 96-well membrane filtration plate under centrifugation at speed of 2000×g for 5 min at 4° C. The filtrates were subjected to UPLC-mass spectrometry (MS/MS) analysis.
The intrinsic clearance of the compounds was calculated using a half-life employing the ‘substrate depletion’ approach. The apparent half-life was calculated from the pseudo-first-order rate constants obtained by linear regression of log (concentration) and time plots. The in vitro intrinsic clearance of IFN was estimated using the formula: […]
Where k is the slope of the line obtained by plotting the natural logarithmic of the percentage of parent remaining versus time and V is the volume of incubation.
The in vitro intrinsic clearance was scaled to whole-organ (hepatic) in vivo intrinsic CL (CLint,H) using the scaling factors available in the literature using equation (Mahmood I. Application of allometric principles for the prediction of pharmacokinetics in human and veterinary drug development. Advanced drug delivery reviews, 2007, 59(11), 1177-1192)
MPPGL represents the microsomal protein per gram of Sprague Dawley rat liver (45 mg/g) and liver weight per kg body weight was 40 g/kg.

[4] = molecular target: T1, hMOR; experiment: Radioligand binding assay (Eurofins Cerep), [3H]DAMGO displacement
[5] = molecular target: T2, α2A adrenergic receptor (Homo sapiens, UniProt P08913); experiment: Radioligand binding assay (Eurofins Cerep), [3H]RX 821002 displacement
T2 construct: Eurofins Cerep (contract screening)
T2 sequence (P08913 1-465): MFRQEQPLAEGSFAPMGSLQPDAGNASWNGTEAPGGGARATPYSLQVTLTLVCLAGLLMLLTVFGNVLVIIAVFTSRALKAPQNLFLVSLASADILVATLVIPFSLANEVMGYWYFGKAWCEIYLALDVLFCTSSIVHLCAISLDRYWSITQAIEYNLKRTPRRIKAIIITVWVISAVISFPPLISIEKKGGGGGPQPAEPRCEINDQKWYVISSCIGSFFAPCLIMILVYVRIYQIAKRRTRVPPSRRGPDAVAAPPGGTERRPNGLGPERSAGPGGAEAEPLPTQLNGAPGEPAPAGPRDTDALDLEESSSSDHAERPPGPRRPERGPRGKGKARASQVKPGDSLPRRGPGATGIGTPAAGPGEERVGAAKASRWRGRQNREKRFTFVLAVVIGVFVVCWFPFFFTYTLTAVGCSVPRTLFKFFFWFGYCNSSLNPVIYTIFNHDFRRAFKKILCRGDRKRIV

[6] = molecular target: hKOR (Homo sapiens, UniProt P41145); experiment: Radioligand binding assay (Eurofins Cerep), [3H]U69,593 displacement
[7] = molecular target: T1, hMOR; experiment: cell-based; parameters: expressed in transfected cells; conditions: for Emax: CHO
[8] = molecular target: T3, α2C adrenergic receptor (Homo sapiens, UniProt P18825); experiment: Radioligand binding assay (Eurofins Cerep), [3H]RX 821002 displacement; conditions: Ki (nM ± SEM) a2C-AR, 3 independent experiments
T3 construct: Eurofins Cerep (contract screening)
T3 sequence (P18825 1-462): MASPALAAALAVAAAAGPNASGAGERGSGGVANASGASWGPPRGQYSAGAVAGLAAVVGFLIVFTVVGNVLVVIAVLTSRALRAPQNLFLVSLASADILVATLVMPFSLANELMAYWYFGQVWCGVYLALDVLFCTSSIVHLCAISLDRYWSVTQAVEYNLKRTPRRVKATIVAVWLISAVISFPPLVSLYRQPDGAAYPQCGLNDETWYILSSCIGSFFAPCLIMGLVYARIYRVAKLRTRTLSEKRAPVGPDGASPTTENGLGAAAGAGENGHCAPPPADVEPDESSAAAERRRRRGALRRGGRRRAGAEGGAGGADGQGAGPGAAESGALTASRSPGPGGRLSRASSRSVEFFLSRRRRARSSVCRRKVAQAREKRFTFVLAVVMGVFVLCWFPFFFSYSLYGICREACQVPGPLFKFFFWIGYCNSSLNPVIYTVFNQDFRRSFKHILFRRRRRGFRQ

hDOR, sequence (P41143 whole entry): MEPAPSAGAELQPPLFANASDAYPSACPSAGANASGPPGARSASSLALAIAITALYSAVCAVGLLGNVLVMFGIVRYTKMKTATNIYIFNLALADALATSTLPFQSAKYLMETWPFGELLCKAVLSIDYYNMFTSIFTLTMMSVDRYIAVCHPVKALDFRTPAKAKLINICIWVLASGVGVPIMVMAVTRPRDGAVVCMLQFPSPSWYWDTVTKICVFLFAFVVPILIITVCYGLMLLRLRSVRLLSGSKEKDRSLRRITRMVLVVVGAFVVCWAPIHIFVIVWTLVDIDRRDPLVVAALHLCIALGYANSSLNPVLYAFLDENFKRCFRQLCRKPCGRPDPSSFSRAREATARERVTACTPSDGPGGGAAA
T1 sequence (P35372 whole entry): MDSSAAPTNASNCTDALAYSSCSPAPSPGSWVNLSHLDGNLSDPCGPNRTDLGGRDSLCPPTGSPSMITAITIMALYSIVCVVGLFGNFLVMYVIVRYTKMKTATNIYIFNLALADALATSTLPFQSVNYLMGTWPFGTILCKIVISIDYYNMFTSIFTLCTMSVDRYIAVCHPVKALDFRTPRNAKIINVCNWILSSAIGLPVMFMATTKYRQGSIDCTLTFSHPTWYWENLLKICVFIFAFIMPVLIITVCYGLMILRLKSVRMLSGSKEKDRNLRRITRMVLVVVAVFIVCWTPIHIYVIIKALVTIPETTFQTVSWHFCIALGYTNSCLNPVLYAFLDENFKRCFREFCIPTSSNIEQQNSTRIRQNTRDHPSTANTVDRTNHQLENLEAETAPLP
hKOR, sequence (P41145 whole entry): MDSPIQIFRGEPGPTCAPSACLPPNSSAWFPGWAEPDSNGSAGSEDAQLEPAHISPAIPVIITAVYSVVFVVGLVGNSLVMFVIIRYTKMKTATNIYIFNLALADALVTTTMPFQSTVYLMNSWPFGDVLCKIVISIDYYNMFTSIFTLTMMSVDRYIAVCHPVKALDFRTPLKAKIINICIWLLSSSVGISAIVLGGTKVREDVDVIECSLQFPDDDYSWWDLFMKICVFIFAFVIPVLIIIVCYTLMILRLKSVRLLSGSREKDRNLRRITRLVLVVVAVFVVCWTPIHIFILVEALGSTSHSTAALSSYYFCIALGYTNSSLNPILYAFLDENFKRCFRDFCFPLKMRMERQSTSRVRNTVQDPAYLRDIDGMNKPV

Q: For CC[C@@H]1CN2CCc3c([nH]c4cccc(OC)c34)[C@@H]2C[C@@H]1/C(=C\OC)C(=O)N(C)C1CCCC1, which “functional activity in cAMP assay” value [1] is on record?
A: The value was “antagonists”.

Q: And the “functional activity in cAMP assay” value ([1]; listed as SUSM 522)?
A: Its value is “antagonist”.

Q: And the Ki ([2]; Table A1, data summary #1, read-out: DOR Ki ± SEM)?
A: The Ki was 9750 ± 452 nM.

Q: And the Ki ([2]; Table A4, data summary #2, read-out: DOR Ki ± SEM)?
A: Its Ki is 6930 ± 1340 nM.

Q: And the “RLM stability” value [3]?
A: Its value is <5 min.

Q: What about the Ki ([4]; Table A4, data summary #2, read-out: MOR Ki ± SEM) of the same compound?
A: The Ki was 68 ± 7 nM.

Q: What about the Ki ([4]; read-out: Ki at hMOR) of the same compound?
A: The Ki was 67.8 nM.

Q: And the Ki ([5]; Table A4, data summary #2, read-out: Alpha2A Ki ± SEM)?
A: Its Ki is 510 ± 82 nM.

Q: And the Ki ([6]; Table A1, data summary #1, read-out: KOR Ki ± SEM)?
A: The Ki was 4600 ± 132 nM.

Q: And the Ki ([6]; Table A4, data summary #2, read-out: KOR Ki ± SEM)?
A: The Ki was 4600 ± 132 nM.

Q: With COC(=O)CC1CCN(CCc2c[nH]c3ccccc23)CC1 [Compound 3-24] as the compound, how does the “functional character at MOR” value [7] read?
A: The value was “low, but measurable, partial agonist activity”.

Q: What about the Emax ([7]; read-out: MOR Emax ± SEM (%)) of the same compound?
A: Its Emax is 23.8 ± 6.7%.

Q: And the Emax ([7]; read-out: Emax at MOR (FIG. 1))?
A: The Emax was 24%.

Q: What about the EC50 ([7]; read-out: MOR EC50 ± SEM) of the same compound?
A: Its EC50 is 1.22 µM.

Q: What about the Ki ([2]; Table 3-1, 3 independent experiments, read-out: Ki (nM ± SEM) DOR) of the same compound?
A: The Ki was > 10000 nM.

Q: And the Ki ([2]; Table 3-2, 3 independent experiments, read-out: Ki (nM ± SEM) DOR)?
A: Its Ki is > 10000 nM.

Q: And the Ki ([2]; Table 3-3, 3 independent experiments, read-out: Ki (nM ± SEM) DOR)?
A: The Ki was > 10000 nM.

Q: And the Ki ([2]; Table 3-4, 3 independent experiments, read-out: Ki (nM ± SEM) DOR)?
A: Its Ki is > 10000 nM.

Q: And the Ki ([2]; Table 3-5, 3 independent experiments, read-out: Ki (nM ± SEM) DOR)?
A: Its Ki is > 10000 nM.

Q: And the Ki ([2]; Table 3-6, 3 independent experiments, read-out: Ki (nM ± SEM) DOR)?
A: Its Ki is > 10000 nM.

Q: And the “SR: Selectivity Ratio (KiMOR/Kiα2A)” value ([4]; Table 3-1)?
A: The value was 1.58.

Q: And the Ki ([4]; Table 3-1, 3 independent experiments, read-out: Ki (nM ± SEM) MOR)?
A: Its Ki is 2230 ± 42.6 nM.

Q: What about the “SR: Selectivity Ratio (KiMOR/Kiα2A)” value ([4]; Table 3-2) of the same compound?
A: The value was 1.58.

Q: What about the Ki ([4]; Table 3-2, 3 independent experiments, read-out: Ki (nM ± SEM) MOR) of the same compound?
A: Its Ki is 2230 ± 42.6 nM.

Q: And the “SR: Selectivity Ratio (KiMOR/Kiα2A)” value ([4]; Table 3-3)?
A: Its value is 1.58.

Q: What about the Ki ([4]; Table 3-3, 3 independent experiments, read-out: Ki (nM ± SEM) MOR) of the same compound?
A: The Ki was 2230 ± 42.6 nM.

Q: And the “SR: Selectivity Ratio (KiMOR/Kiα2A)” value ([4]; Table 3-4)?
A: The value was 1.58.

Q: What about the Ki ([4]; Table 3-4, 3 independent experiments, read-out: Ki (nM ± SEM) MOR) of the same compound?
A: The Ki was 2230 ± 42.6 nM.

Q: And the “SR: Selectivity Ratio (KiMOR/Kiα2A)” value ([4]; Table 3-5)?
A: The value was 1.58.

Q: What about the Ki ([4]; Table 3-5, 3 independent experiments, read-out: Ki (nM ± SEM) MOR) of the same compound?
A: Its Ki is 2230 ± 42.6 nM.

Q: What about the “SR: Selectivity Ratio (KiMOR/Kiα2A)” value ([4]; Table 3-6) of the same compound?
A: The value was 1.58.

Q: What about the Ki ([4]; Table 3-6, 3 independent experiments, read-out: Ki (nM ± SEM) MOR) of the same compound?
A: The Ki was 2230 ± 42.6 nM.

Q: And the Ki ([4]; Table 3-7, human MOR, read-out: MOR Ki (nM ± SEM))?
A: Its Ki is 2230 ± 43 nM.

Q: And the Ki ([5]; Ki (nM ± SEM) a2A-AR, Table 3-1, 3 independent experiments)?
A: Its Ki is 1410 ± 122 nM.

Q: What about the Ki ([5]; Ki (nM ± SEM) a2A-AR, Table 3-2, 3 independent experiments) of the same compound?
A: The Ki was 1410 ± 122 nM.

Q: What about the Ki ([5]; Ki (nM ± SEM) a2A-AR, Table 3-3, 3 independent experiments) of the same compound?
A: The Ki was 1410 ± 122 nM.

Q: And the Ki ([5]; Ki (nM ± SEM) a2A-AR, Table 3-4, 3 independent experiments)?
A: Its Ki is 1410 ± 122 nM.

Q: And the Ki ([5]; Ki (nM ± SEM) a2A-AR, Table 3-6, 3 independent experiments)?
A: Its Ki is 1410 ± 122 nM.

Q: What about the Ki ([5]; Ki (nM ± SEM) a2A-ar, Table 3-5, 3 independent experiments) of the same compound?
A: Its Ki is 1410 ± 122 nM.

Q: And the Ki ([8]; Table 3-2)?
A: Its Ki is > 10000 nM.

Q: And the Ki ([8]; Table 3-3)?
A: Its Ki is > 10000 nM.

Q: What about the Ki ([8]; Table 3-4) of the same compound?
A: The Ki was > 10000 nM.

Q: What about the Ki ([8]; Table 3-5) of the same compound?
A: The Ki was > 10000 nM.

Q: What about the Ki ([8]; Table 3-6) of the same compound?
A: Its Ki is > 10000 nM.

Q: What about the Ki ([6]; Table 3-1, 3 independent experiments, read-out: Ki (nM ± SEM) KOR) of the same compound?
A: Its Ki is > 10000 nM.

Q: What about the Ki ([6]; Table 3-2, 3 independent experiments, read-out: Ki (nM ± SEM) KOR) of the same compound?
A: The Ki was > 10000 nM.

Q: What about the Ki ([6]; Table 3-3, 3 independent experiments, read-out: Ki (nM ± SEM) KOR) of the same compound?
A: Its Ki is > 10000 nM.

Q: And the Ki ([6]; Table 3-4, 3 independent experiments, read-out: Ki (nM ± SEM) KOR)?
A: The Ki was > 10000 nM.

Q: What about the Ki ([6]; Table 3-5, 3 independent experiments, read-out: Ki (nM ± SEM) KOR) of the same compound?
A: The Ki was > 10000 nM.

Q: What about the Ki ([6]; Table 3-6, 3 independent experiments, read-out: Ki (nM ± SEM) KOR) of the same compound?
A: Its Ki is > 10000 nM.
